Experimental data taken from PubChem BioAssay AID1259407 (Chemical Carcinogenesis Research Information System (CCRIS), 2018).
The source made the active and inactive calls. No rule for the calls is given here.

Test system: CCRIS mutagenicity, Ames/micronucleus/aberration tests
Test: CCRIS mutagenicity studies
[1] = Test System: AMES SALMONELLA TYPHIMURIUM, Strain/Indicator: TA98, Metabolic Activation: NONE, Method: STANDARD PLATE

Measured: mutagenic call

C=CCCCCCCCCCCCC
inactive: [1] inactive; negative | Test System: AMES SALMONELLA TYPHIMURIUM, Strain/Indicator: TA98, Metabolic Activation: RAT, LIVER, S-9, AROCLOR, Method: STANDARD PLATE inactive; negative | Test System: AMES SALMONELLA TYPHIMURIUM, Strain/Indicator: TA100, Metabolic Activation: NONE, Method: STANDARD PLATE inactive; negative | Test System: AMES SALMONELLA TYPHIMURIUM, Strain/Indicator: TA100, Metabolic Activation: RAT, LIVER, S-9, AROCLOR, Method: STANDARD PLATE inactive; negative | Test System: AMES SALMONELLA TYPHIMURIUM, Strain/Indicator: UTH8413, Metabolic Activation: NONE, Method: STANDARD PLATE inactive; negative | Test System: AMES SALMONELLA TYPHIMURIUM, Strain/Indicator: UTH8413, Metabolic Activation: RAT, LIVER, S-9, AROCLOR, Method: STANDARD PLATE inactive; negative | Test System: AMES SALMONELLA TYPHIMURIUM, Strain/Indicator: UTH8414, Metabolic Activation: NONE, Method: STANDARD PLATE inactive; negative | Test System: AMES SALMONELLA TYPHIMURIUM, Strain/Indicator: UTH8414, Metabolic Activation: RAT, LIVER, S-9, AROCLOR, Method: STANDARD PLATE inactive; negative

CC(C)CC(=O)N=c1sn(C(=O)CC(C)C)c2ccc([N+](=O)[O-])cc12
active: Test System: AMES SALMONELLA TYPHIMURIUM, Strain/Indicator: TA100, Metabolic Activation: S-9, Method: STANDARD PLATE active; positive

CCN(Cc1ccccc1)c1ccccc1
inactive: Test System: AMES SALMONELLA TYPHIMURIUM, Strain/Indicator: TA97, Metabolic Activation: HAMSTER, LIVER, S-9, AROCLOR 1254 (10 OR 30%), Method: PREINCUBATION inactive; negative | Test System: AMES SALMONELLA TYPHIMURIUM, Strain/Indicator: TA97, Metabolic Activation: NONE, Method: PREINCUBATION inactive; negative | Test System: AMES SALMONELLA TYPHIMURIUM, Strain/Indicator: TA97, Metabolic Activation: RAT, LIVER, S-9, AROCLOR 1254 (10 OR 30%), Method: PREINCUBATION inactive; negative | Test System: AMES SALMONELLA TYPHIMURIUM, Strain/Indicator: TA98, Metabolic Activation: HAMSTER, LIVER, S-9, AROCLOR 1254 (10 OR 30%), Method: PREINCUBATION inactive; negative | Test System: AMES SALMONELLA TYPHIMURIUM, Strain/Indicator: TA98, Metabolic Activation: NONE, Method: PREINCUBATION inactive; negative | Test System: AMES SALMONELLA TYPHIMURIUM, Strain/Indicator: TA98, Metabolic Activation: RAT LIVER S-9, PHENOBARBITAL AND BETA-NAPHTHOFLAVONE, Method: PREINCUBATION inactive; negative | Test System: AMES SALMONELLA TYPHIMURIUM, Strain/Indicator: TA98, Metabolic Activation: RAT, LIVER, S-9, AROCLOR 1254 (10 OR 30%), Method: PREINCUBATION inactive; negative | Test System: AMES SALMONELLA TYPHIMURIUM, Strain/Indicator: TA100, Metabolic Activation: HAMSTER, LIVER, S-9, AROCLOR 1254 (10 OR 30%), Method: PREINCUBATION inactive; negative | Test System: AMES SALMONELLA TYPHIMURIUM, Strain/Indicator: TA100, Metabolic Activation: NONE, Method: PREINCUBATION inactive; negative | Test System: AMES SALMONELLA TYPHIMURIUM, Strain/Indicator: TA100, Metabolic Activation: RAT LIVER S-9, PHENOBARBITAL AND BETA-NAPHTHOFLAVONE, Method: PREINCUBATION inactive; negative | Test System: AMES SALMONELLA TYPHIMURIUM, Strain/Indicator: TA100, Metabolic Activation: RAT, LIVER, S-9, AROCLOR 1254 (10 OR 30%), Method: PREINCUBATION inactive; negative | Test System: AMES SALMONELLA TYPHIMURIUM, Strain/Indicator: TA1535, Metabolic Activation: HAMSTER, LIVER, S-9, AROCLOR 1254 (10 OR 30%), Method: PREINCUBATION inactive; negative | Test System: AMES SALMONELLA TYPHIMURIUM, Strain/Indicator: TA1535, Metabolic Activation: NONE, Method: PREINCUBATION inactive; negative | Test System: AMES SALMONELLA TYPHIMURIUM, Strain/Indicator: TA1535, Metabolic Activation: RAT LIVER S-9, PHENOBARBITAL AND BETA-NAPHTHOFLAVONE, Method: PREINCUBATION inactive; negative | Test System: AMES SALMONELLA TYPHIMURIUM, Strain/Indicator: TA1535, Metabolic Activation: RAT, LIVER, S-9, AROCLOR 1254 (10 OR 30%), Method: PREINCUBATION inactive; negative | Test System: AMES SALMONELLA TYPHIMURIUM, Strain/Indicator: TA1537, Metabolic Activation: NONE, Method: PREINCUBATION inactive; negative | Test System: AMES SALMONELLA TYPHIMURIUM, Strain/Indicator: TA1537, Metabolic Activation: RAT LIVER S-9, PHENOBARBITAL AND BETA-NAPHTHOFLAVONE, Method: PREINCUBATION inactive; negative | Test System: AMES SALMONELLA TYPHIMURIUM, Strain/Indicator: TA1538, Metabolic Activation: NONE, Method: PREINCUBATION inactive; negative | Test System: AMES SALMONELLA TYPHIMURIUM, Strain/Indicator: TA1538, Metabolic Activation: RAT LIVER S-9, PHENOBARBITAL AND BETA-NAPHTHOFLAVONE, Method: PREINCUBATION inactive; negative | Test System: E.COLI, Strain/Indicator: WP2UVRA, Metabolic Activation: NONE, Method: PREINCUBATION inactive; negative | Test System: E.COLI, Strain/Indicator: WP2UVRA, Metabolic Activation: RAT LIVER S-9, PHENOBARBITAL AND BETA-NAPHTHOFLAVONE, Method: PREINCUBATION inactive; negative

[Cd]
active: Test System: AMES SALMONELLA TYPHIMURIUM, Strain/Indicator: TA102, Metabolic Activation: NONE, Method: STANDARD PLATE active; positive
inactive: [1] inactive; negative | Test System: AMES SALMONELLA TYPHIMURIUM, Strain/Indicator: TA98, Metabolic Activation: RAT, LIVER, S-9, PHENOBARBITAL, Method: STANDARD PLATE inactive; negative | Test System: AMES SALMONELLA TYPHIMURIUM, Strain/Indicator: TA102, Metabolic Activation: RAT, LIVER, S-9, PHENOBARBITAL, Method: STANDARD PLATE inactive; negative | Test System: AMES SALMONELLA TYPHIMURIUM, Strain/Indicator: TA1535, Metabolic Activation: NONE, Method: STANDARD PLATE inactive; negative | Test System: AMES SALMONELLA TYPHIMURIUM, Strain/Indicator: TA1535, Metabolic Activation: RAT, LIVER, S-9, PHENOBARBITAL, Method: STANDARD PLATE inactive; negative | Test System: AMES SALMONELLA TYPHIMURIUM, Strain/Indicator: TA1537, Metabolic Activation: NONE, Method: STANDARD PLATE inactive; negative | Test System: AMES SALMONELLA TYPHIMURIUM, Strain/Indicator: TA1537, Metabolic Activation: RAT, LIVER, S-9, PHENOBARBITAL, Method: STANDARD PLATE inactive; negative
